Laboratory results from US5877334A, “Intermediates useful in solid phase synthesis method” (Abbott Laboratories, priority 1996, dated 1999).

target: HIV1 protease (Human immunodeficiency virus type 1 group M subtype B, UniProt P04585); test: inhibition of HIV1 protease; format: biochemical; conditions: A. Mono-ol (X = H); read-out: IC50 against HIV1 protease, A. Mono-ol (X = H)
Experimental: ^a The IC50 against HIV1 protease was measured according to the
method described in U.S. Pat. No. 5,354,866, issued October 11, 1994.

IC50, < 1 nM:
CC(C)[C@H](NC(=O)CC1NC(=O)NC1=O)C(=O)N[C@@H](Cc1ccccc1)C[C@H](O)[C@H](Cc1ccccc1)NC(=O)[C@@H](NC(=O)CC1NC(=O)NC1=O)C(C)C (stereo partly shown) [Example 7A], CC(C)[C@H](NC(=O)Cc1csc(N)n1)C(=O)N[C@@H](Cc1ccccc1)C[C@H](O)[C@H](Cc1ccccc1)NC(=O)[C@@H](NC(=O)Cc1csc(N)n1)C(C)C [Example 8A], COc1cc(CC(=O)N[C@H](C(=O)N[C@@H](Cc2ccccc2)C[C@H](O)[C@H](Cc2ccccc2)NC(=O)[C@@H](NC(=O)Cc2cc(OC)c(OC)c(OC)c2)C(C)C)C(C)C)cc(OC)c1OC [Example 9A], CC(C)[C@H](NC(=O)CSc1ncccn1)C(=O)N[C@@H](Cc1ccccc1)C[C@H](O)[C@H](Cc1ccccc1)NC(=O)[C@@H](NC(=O)CSc1ncccn1)C(C)C [Example 10A]
